{"source": "the NIST ThermoML archive (doi:10.1016/j.jct.2009.11.012)", "key": {"[1]": {"details": "DTA"}, "[2]": {"experiment": "molar enthalpy of transition or fusion", "details": "298.15 K; Crystal 2; DSC"}, "[3]": {"experiment": "Molar enthalpy of transition or fusion", "details": "Crystal 2; DSC"}, "[4]": {"experiment": "molar heat capacity at constant pressure", "details": "101.33 kPa, Small sample (50 mg) DSC"}}, "note": "± gives the expanded uncertainty stated by the source.", "data": [{"smiles": "O=C(Nc1ccc(Cl)cc1)Nc1ccc(Cl)c(Cl)c1", "note": "[N-(4-chlorophenyl)-N'-(3,4-dichlorophenyl)urea]", "values": [{"measurement": "Normal melting temperature", "setting": "[1]; Crystal 1", "result": "254.4 ± 0.9", "unit": "°C"}, {"measurement": "Triple point temperature", "setting": "[1]; Crystal 2", "result": "428 ± 2", "unit": "K"}, {"measurement": "molar enthalpy of transition or fusion", "setting": "[2]", "result": "43.5 ± 1.12", "unit": "kcal/mol"}, {"measurement": "Molar enthalpy of transition or fusion", "setting": "[3]", "result": "1.46 ± 0.0717", "unit": "kcal/mol"}, {"measurement": "molar heat capacity at constant pressure", "setting": "[4]; 263.15 K, Crystal 2", "result": "268.71 ± 5.5", "unit": "J/K/mol"}, {"measurement": "molar heat capacity at constant pressure", "setting": "[4]; 265.15 K, Crystal 2", "result": "269.88 ± 5.5", "unit": "J/K/mol"}, {"measurement": "molar heat capacity at constant pressure", "setting": "[4]; 270.15 K, Crystal 2", "result": "272.35 ± 5.5", "unit": "J/K/mol"}, {"measurement": "molar heat capacity at constant pressure", "setting": "[4]; 275.15 K, Crystal 2", "result": "274.29 ± 5.6", "unit": "J/K/mol"}, {"measurement": "molar heat capacity at constant pressure", "setting": "[4]; 280.15 K, Crystal 2", "result": "276.34 ± 5.6", "unit": "J/K/mol"}, {"measurement": "molar heat capacity at constant pressure", "setting": "[4]; 285.15 K, Crystal 2", "result": "278.5 ± 5.6", "unit": "J/K/mol"}, {"measurement": "molar heat capacity at constant pressure", "setting": "[4]; 290.15 K, Crystal 2", "result": "280.82 ± 5.6", "unit": "J/K/mol"}, {"measurement": "molar heat capacity at constant pressure", "setting": "[4]; 295.15 K, Crystal 2", "result": "282.87 ± 5.7", "unit": "J/K/mol"}, {"measurement": "molar heat capacity at constant pressure", "setting": "[4]; 298.15 K, Crystal 2", "result": "284.13 ± 5.7", "unit": "J/K/mol"}, {"measurement": "molar heat capacity at constant pressure", "setting": "[4]; 300.15 K, Crystal 2", "result": "285.18 ± 5.7", "unit": "J/K/mol"}, {"measurement": "molar heat capacity at constant pressure", "setting": "[4]; 305.15 K, Crystal 2", "result": "287.71 ± 5.7", "unit": "J/K/mol"}, {"measurement": "molar heat capacity at constant pressure", "setting": "[4]; 310.15 K, Crystal 2", "result": "290.49 ± 5.7", "unit": "J/K/mol"}, {"measurement": "molar heat capacity at constant pressure", "setting": "[4]; 315.15 K, Crystal 2", "result": "290.67 ± 5.7", "unit": "J/K/mol"}, {"measurement": "molar heat capacity at constant pressure", "setting": "[4]; 320.15 K, Crystal 2", "result": "294.23 ± 5.8", "unit": "J/K/mol"}, {"measurement": "molar heat capacity at constant pressure", "setting": "[4]; 325.15 K, Crystal 2", "result": "294.87 ± 5.8", "unit": "J/K/mol"}, {"measurement": "molar heat capacity at constant pressure", "setting": "[4]; 330.15 K, Crystal 2", "result": "297.95 ± 5.8", "unit": "J/K/mol"}, {"measurement": "molar heat capacity at constant pressure", "setting": "[4]; 335.15 K, Crystal 2", "result": "299.93 ± 5.8", "unit": "J/K/mol"}, {"measurement": "molar heat capacity at constant pressure", "setting": "[4]; 340.15 K, Crystal 2", "result": "302.05 ± 5.8", "unit": "J/K/mol"}, {"measurement": "molar heat capacity at constant pressure", "setting": "[4]; 345.15 K, Crystal 2", "result": "304.25 ± 5.9", "unit": "J/K/mol"}, {"measurement": "molar heat capacity at constant pressure", "setting": "[4]; 350.15 K, Crystal 2", "result": "307.35 ± 5.9", "unit": "J/K/mol"}, {"measurement": "molar heat capacity at constant pressure", "setting": "[4]; 355.15 K, Crystal 2", "result": "310.57 ± 5.9", "unit": "J/K/mol"}, {"measurement": "molar heat capacity at constant pressure", "setting": "[4]; 360.15 K, Crystal 2", "result": "313.61 ± 6", "unit": "J/K/mol"}, {"measurement": "molar heat capacity at constant pressure", "setting": "[4]; 365.15 K, Crystal 2", "result": "316.56 ± 6", "unit": "J/K/mol"}, {"measurement": "molar heat capacity at constant pressure", "setting": "[4]; 370.15 K, Crystal 2", "result": "318.53 ± 6", "unit": "J/K/mol"}, {"measurement": "molar heat capacity at constant pressure", "setting": "[4]; 375.15 K, Crystal 2", "result": "320.86 ± 6", "unit": "J/K/mol"}, {"measurement": "molar heat capacity at constant pressure", "setting": "[4]; 380.15 K, Crystal 2", "result": "322.77 ± 6.1", "unit": "J/K/mol"}, {"measurement": "molar heat capacity at constant pressure", "setting": "[4]; 385.15 K, Crystal 2", "result": "325.84 ± 6.1", "unit": "J/K/mol"}, {"measurement": "molar heat capacity at constant pressure", "setting": "[4]; 390.15 K, Crystal 2", "result": "328.48 ± 6.1", "unit": "J/K/mol"}, {"measurement": "molar heat capacity at constant pressure", "setting": "[4]; 395.15 K, Crystal 2", "result": "330.98 ± 6.2", "unit": "J/K/mol"}, {"measurement": "molar heat capacity at constant pressure", "setting": "[4]; 400.15 K, Crystal 2", "result": "333.62 ± 6.2", "unit": "J/K/mol"}, {"measurement": "molar heat capacity at constant pressure", "setting": "[4]; 405.15 K, Crystal 2", "result": "335.55 ± 6.2", "unit": "J/K/mol"}, {"measurement": "molar heat capacity at constant pressure", "setting": "[4]; 410.15 K, Crystal 2", "result": "339.3 ± 6.2", "unit": "J/K/mol"}, {"measurement": "molar heat capacity at constant pressure", "setting": "[4]; 475.15 K, Crystal 1", "result": "432.35 ± 18", "unit": "J/K/mol"}, {"measurement": "molar heat capacity at constant pressure", "setting": "[4]; 480.15 K, Crystal 1", "result": "436.61 ± 19", "unit": "J/K/mol"}, {"measurement": "molar heat capacity at constant pressure", "setting": "[4]; 485.15 K, Crystal 1", "result": "444.02 ± 19", "unit": "J/K/mol"}, {"measurement": "molar heat capacity at constant pressure", "setting": "[4]; 490.15 K, Crystal 1", "result": "452.78 ± 19", "unit": "J/K/mol"}, {"measurement": "molar heat capacity at constant pressure", "setting": "[4]; 495.15 K, Crystal 1", "result": "464.93 ± 20", "unit": "J/K/mol"}]}]}
